Test: in vitro absorption of foam/gas in fresh human venous blood
Format: in vitro ADME
Conditions: 0.5 ml aliquot in 20 ml stirred blood
Procedure: In vitro experiments were conducted to determine the absorption of foam made with different gases in fresh human venous blood.
A 20 ml polypropylene syringe barrel was prepared by puncturing its side wall with a relatively large hypodermic needle to make a hole approximately 1 mm in diameter. This hole was then covered by securing a piece of clear flexible vinyl sheet over it with clear adhesive tape. A small magnetic stirrer element was introduced into the syringe barrel and the plunger then replaced. 20 ml of human venous blood was then with withdrawn in the usual manner from a human subject using the specially prepared syringe fitted with a hypodermic needle.
The hypodermic needle was removed and the syringe then placed on a magnetic stirrer unit so that the magnetic element in the syringe thoroughly agitated the blood. […]
The needle of the 0.5 ml syringe was then introduced through the vinyl sheet on the side wall of the 20 ml syringe. […] It was determined that a distance of 45 intervals on this scale corresponded to an internal volume of in the manometer tubing of approximately 0.5 ml. […]
In this experiment, the air foam test was only observed for a few minutes after tF. However, further experiments have been conducted by the inventors, the results of which are not formally recorded here, involving foam with a percentage of nitrogen. […]

Absorbed volume at tF: 0.46 mL | tF (time until blood column stopped moving): 140 s
Compound: O=O [Oxygen gas, oxygen]
